What was measured:
[1] = system: Pseudomonas aeruginosa 99; experiment: MIC, serial dilution on nutrient agar; format: cell-based; settings: Pseudomonas aeruginosa, 99; nutrient agar, 37° C., 18 hours; read-out: MIC
Escherichia coli W677 = experiment: MIC, serial dilution on nutrient agar; format: cell-based; settings: W677, 18 h
[2] = system: Escherichia coli K-12 ML 1629; experiment: MIC, serial dilution on nutrient agar; format: cell-based; settings: K12ML1629, 37° C., 18 hours
Experimental: (§1) The minimum inhibitory concentrations (mcg/ml) of 6"-deoxydibekacin (abbreviated as 6"-DDKB), 4",6"-dideoxydibekacin (abbreviated as 4",6"-DDKB), 1-N-(L-4-amino-2-hydroxybutyryl)-6"-deoxydibekacin (abbreviated as AHB-6"-DDKB) and 1-N-(L-4-amino-2-hydroxybutyryl)-4",6"-dideoxydibekacin (abbreviated as AHB-4",6"-DDKB) of this invention against various microorganisms were determined according to serial dilution method on a nutrient agar medium at 37° C., the estimation being made after 18 hours incubation. For comparison purpose, the minimum inhibitory concentrations of dibekacin (abbreviated as DKB) were also determined in the same manner as stated above.

[3] = system: Escherichia coli K-12 J5B 11-2; experiment: MIC, serial dilution on nutrient agar; format: cell-based; settings: K12J5B112, 37° C., 18 hours
Experimental: as §1

Serratia SOU = experiment: MIC, serial dilution on nutrient agar; format: cell-based; settings: 37° C., 18 hours
Experimental: as §1

[4] = system: Pseudomonas maltophilia GN907; experiment: MIC, serial dilution on nutrient agar; format: cell-based; settings: Stenotrophomonas maltophilia, 37° C., 18 hours
Experimental: as §1

[5] = system: Shigella flexneri 4b JS11811; experiment: MIC, serial dilution on nutrient agar; format: cell-based; settings: 4BJS11811, 37° C., 18 hours
Experimental: as §1

[6] = system: Staphylococcus aureus 209P; experiment: MIC, serial dilution on nutrient agar; format: cell-based; settings: 37° C., 18 hours
Experimental: as §1

Proteus vulgaris OX19 = experiment: MIC, serial dilution on nutrient agar; format: cell-based; settings: 37° C., 18 hours
Experimental: as §1

[7] = system: Klebsiella pneumoniae PCI 602; experiment: MIC, serial dilution on nutrient agar; format: cell-based; settings: PCI602, 37° C., 18 hours
Experimental: as §1

[8] = system: Escherichia coli K-12 ML 1630; experiment: MIC, serial dilution on nutrient agar; format: cell-based; settings: K12ML1630, 37° C., 18 hours
Experimental: as §1

Providencia 2991 = experiment: MIC, serial dilution on nutrient agar; format: cell-based; settings: 37° C., 18 hours
Experimental: as §1

[9] = system: Pseudomonas aeruginosa GN315; experiment: MIC, serial dilution on nutrient agar; format: cell-based; settings: 37° C., 18 hours
Experimental: as §1

Serratia 4 = experiment: MIC, serial dilution on nutrient agar; format: cell-based; settings: 37° C., 18 hours
Experimental: as §1

[10] = system: Escherichia coli K-12 C 600R/35; experiment: MIC, serial dilution on nutrient agar; format: cell-based; settings: K12C600R/35, 37° C., 18 hours
Experimental: as §1

Serratia marcescens = experiment: MIC, serial dilution on nutrient agar; format: cell-based; settings: 37° C., 18 hours
Experimental: as §1

Shigella sonnei JS11746 = experiment: MIC, serial dilution on nutrient agar; format: cell-based; settings: 37° C., 18 hours
Experimental: as §1

[11] = system: Pseudomonas aeruginosa 21-75; experiment: MIC, serial dilution on nutrient agar; format: cell-based; settings: 2175, 37° C., 18 hours
Experimental: as §1

[12] = system: Escherichia coli K-12 R 388; experiment: MIC, serial dilution on nutrient agar; format: cell-based; settings: K12R388, 18 h
[13] = system: Mycrococcus flavus FDA 16; experiment: MIC, serial dilution on nutrient agar; format: cell-based; settings: nutrient agar, 37° C., 18 hours; read-out: MIC
Sarcina lutea PCI 1001 = experiment: MIC, serial dilution on nutrient agar; format: cell-based; settings: Micrococcus luteus, PCI1001; nutrient agar, 37° C., 18 hours; read-out: MIC
[14] = system: Pseudomonas aeruginosa PST1; experiment: MIC, serial dilution on nutrient agar; format: cell-based; settings: PST1, 18 h
[15] = system: Bacillus cereus ATCC 10702; experiment: MIC, serial dilution on nutrient agar; format: cell-based; settings: ATCC10702, nutrient agar, 37° C., 18 hours, read-out: MIC
[16] = system: Pseudomonas aeruginosa TI-13; experiment: MIC, serial dilution on nutrient agar; format: cell-based; settings: TI13, nutrient agar, 37° C., 18 hours, read-out: MIC
[17] = system: Salmonella enteritidis 1891; experiment: MIC, serial dilution on nutrient agar; format: cell-based; settings: Salmonella enterica, 18 h
Providencia Pv 16 = experiment: MIC, serial dilution on nutrient agar; format: cell-based; settings: PV16, 18 h
[18] = system: Pseudomonas aeruginosa A3; experiment: MIC, serial dilution on nutrient agar; format: cell-based; settings: A3, 18 h
Salmonella typhi F63 = experiment: MIC, serial dilution on nutrient agar; format: cell-based; settings: Salmonella enterica, 18 h
[19] = system: Pseudomonas aeruginosa ROS134/PU21; experiment: microbe, parasite or virus in culture; format: cell-based; settings: ROS134/PU21, 18 h
Escherichia coli JR255 = experiment: microbe, parasite or virus in culture; format: cell-based; settings: JR255, 18 h
[20] = system: Escherichia coli K-12 1410 R81; experiment: MIC, serial dilution on nutrient agar; format: cell-based; settings: K121410R81, 18 h
[21] = system: Bacillus subtilis PCI 219; experiment: MIC, serial dilution on nutrient agar; format: cell-based; settings: PCI219, 37° C., 18 hours
Escherichia coli K-12 R5 = experiment: microbe, parasite or virus in culture; format: cell-based; settings: K12R5, 18 h
Proteus rettgeri GN311 = experiment: MIC, serial dilution on nutrient agar; format: cell-based; settings: Providencia rettgeri, GN311; nutrient agar, 37° C., 18 hours; read-out: MIC
[22] = system: Staphylococcus epidermidis 109; experiment: MIC, serial dilution on nutrient agar; format: cell-based; settings: Staphylococcus epidermidis, 109, 18 h
[23] = system: Pseudomonas aeruginosa No. 12; experiment: MIC, serial dilution on nutrient agar; format: cell-based; settings: NO.12, nutrient agar, 37° C., 18 hours, read-out: MIC
intravenous LD50 in mice = settings: mouse, in vivo, estimated
[24] = system: Escherichia coli K-12 LA 290 R55; experiment: microbe, parasite or virus in culture; format: cell-based; settings: K12LA290R55, 18 h
Proteus rettgeri GN466 = experiment: MIC, serial dilution on nutrient agar; format: cell-based; settings: Providencia rettgeri, GN466, 18 h
[25] = system: Corynebacterium bovis 1810; experiment: MIC, serial dilution on nutrient agar; format: cell-based; settings: Corynebacterium bovis, 1810; nutrient agar, 37° C., 18 hours; read-out: MIC

C[C@H]1O[C@H](O[C@@H]2[C@@H](O)[C@H](O[C@H]3O[C@H](CN)CC[C@H]3N)[C@@H](N)C[C@H]2N)[C@H](O)[C@@H](N)[C@@H]1O [6"-DDKB, 6"-deoxydibekacin]
0.78 µg/mL: MIC [6]
> 100 µg/mL: MIC (Serratia SOU) | MIC [4] | MIC (Providencia 2991) | MIC [11] | MIC [14] | MIC (Providencia Pv 16) | MIC [19] | MIC (Escherichia coli JR255) | MIC [24]
12.5 µg/mL: MIC [1] | MIC [16]
< 0.2 µg/mL: MIC [21]
> 60 mg/kg: LD50 (intravenous LD50 in mice)
25 µg/mL: MIC [13] | MIC (Sarcina lutea PCI 1001) | MIC [25]
100 µg/mL: MIC [9] | MIC (Serratia 4) | MIC (Serratia marcescens) | MIC (Escherichia coli K-12 R5)
1.56 µg/mL: MIC (Escherichia coli W677) | MIC [2] | MIC [3] | MIC [7] | MIC [12] | MIC [18] | MIC [20] | MIC [22]
6.25 µg/mL: MIC [15] | MIC (Proteus rettgeri GN311) | MIC [23]
3.13 µg/mL: MIC [5] | MIC [8] | MIC [10] | MIC (Shigella sonnei JS11746) | MIC [17] | MIC (Proteus rettgeri GN466)
0.39 µg/mL: MIC (Proteus vulgaris OX19) | MIC (Salmonella typhi F63)
